Read-outs that look alike come from different tables or passages of the source.

For assay [1], the target named is T1, FAK (Homo sapiens, UniProt Q05397). As to the kind of experiment: FAK degradation by immunoblot in H3122 cells. The following applies: 10 nM to 1000 nM, 16 hours (compound 10) or 24 hours (compounds 1, 9). It is filed as cell-based. On the set-up: endogenous in cells; host or cells: H3122.
The target of assay [2] is T1, FAK. As to the kind of experiment: FAK degradation by immunoblot in PA-TU-8988T cells. The format is cell-based. On the set-up: endogenous in cells; host or cells: PA-TU-8988T. The following applies: for Degradation of FAK protein (in words): 0.1 nM to 1000 nM; for Degradation of FAK protein (in words) / Concentration at which degradation of FAK protein is evident / Concentration of maximal degradation of FAK protein / Concentration giving modest degradation of FAK protein: immunoblot; for inhibition at 0.01 µM / inhibition at 0.1 µM: PaTu 8988t; for inhibition at 0.01 µM: read-out: Degradation at 10 nM; for inhibition at 0.1 µM: read-out: Degradation at 100 nM. The method, then:
(§1) Immunoblotting for FAK was performed to evaluate changes in protein levels upon FAK degrader treatment. All samples were run with equal total protein content and immunoblotting was performed using antibodies that detect total FAK protein as well as GAPDH or α-Tubulin as a loading control. Fluorescently labelled infrared secondary antibodies that enable detection using an Odyssey® CLx Imager was employed to evaluate protein levels.
FAK degraders were evaluated in immunoblot assays to determine the effective dose required to achieve FAK protein loss. Immunoblots for FAK protein were normalized relative to the loading control and percent degradation was evaluated compared to DMSO treatment.

Assay [3] addresses T2, ALK (Homo sapiens, UniProt Q9UM73). Nature of the assay: ALK degradation by immunoblot in H3122 cells. The format is cell-based. Further details: endogenous in cells; host or cells: H3122; the other entry of the earlier key: EML4 (Q9HC35, Echinoderm microtubule-associated protein-like 4). The following applies: 10 nM to 1000 nM, 16 hours (compound 10) or 24 hours (compounds 1, 9).
Target sequence in this assay (Q9UM73 with tags, fused parts or gaps): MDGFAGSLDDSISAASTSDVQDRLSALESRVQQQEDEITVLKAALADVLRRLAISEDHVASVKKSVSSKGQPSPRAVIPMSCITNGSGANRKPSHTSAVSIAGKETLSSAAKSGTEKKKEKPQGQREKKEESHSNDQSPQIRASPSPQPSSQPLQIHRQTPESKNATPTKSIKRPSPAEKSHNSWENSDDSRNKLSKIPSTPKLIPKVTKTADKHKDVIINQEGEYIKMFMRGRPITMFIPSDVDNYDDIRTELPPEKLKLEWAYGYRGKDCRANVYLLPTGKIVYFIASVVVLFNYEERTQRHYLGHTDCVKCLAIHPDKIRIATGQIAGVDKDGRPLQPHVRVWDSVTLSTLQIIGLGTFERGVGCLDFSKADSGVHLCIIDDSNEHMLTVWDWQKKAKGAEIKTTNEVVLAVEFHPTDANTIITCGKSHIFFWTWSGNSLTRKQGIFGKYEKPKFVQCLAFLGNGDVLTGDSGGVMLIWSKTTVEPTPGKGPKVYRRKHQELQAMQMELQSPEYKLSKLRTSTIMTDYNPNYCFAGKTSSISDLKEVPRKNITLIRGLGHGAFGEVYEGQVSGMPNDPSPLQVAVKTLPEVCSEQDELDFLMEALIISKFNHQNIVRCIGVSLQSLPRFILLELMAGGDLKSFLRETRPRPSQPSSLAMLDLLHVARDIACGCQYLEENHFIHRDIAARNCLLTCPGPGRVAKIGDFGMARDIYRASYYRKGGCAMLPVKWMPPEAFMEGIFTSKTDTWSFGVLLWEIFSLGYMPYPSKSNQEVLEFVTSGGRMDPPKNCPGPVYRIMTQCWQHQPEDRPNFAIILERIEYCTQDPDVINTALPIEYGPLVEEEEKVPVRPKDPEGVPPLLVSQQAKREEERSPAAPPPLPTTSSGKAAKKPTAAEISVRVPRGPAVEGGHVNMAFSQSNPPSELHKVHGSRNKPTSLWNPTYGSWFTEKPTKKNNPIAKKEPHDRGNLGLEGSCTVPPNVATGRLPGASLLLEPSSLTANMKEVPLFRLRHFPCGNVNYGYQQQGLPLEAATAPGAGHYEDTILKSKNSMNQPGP
Target sequence in this assay (Q96SW2 whole entry partner): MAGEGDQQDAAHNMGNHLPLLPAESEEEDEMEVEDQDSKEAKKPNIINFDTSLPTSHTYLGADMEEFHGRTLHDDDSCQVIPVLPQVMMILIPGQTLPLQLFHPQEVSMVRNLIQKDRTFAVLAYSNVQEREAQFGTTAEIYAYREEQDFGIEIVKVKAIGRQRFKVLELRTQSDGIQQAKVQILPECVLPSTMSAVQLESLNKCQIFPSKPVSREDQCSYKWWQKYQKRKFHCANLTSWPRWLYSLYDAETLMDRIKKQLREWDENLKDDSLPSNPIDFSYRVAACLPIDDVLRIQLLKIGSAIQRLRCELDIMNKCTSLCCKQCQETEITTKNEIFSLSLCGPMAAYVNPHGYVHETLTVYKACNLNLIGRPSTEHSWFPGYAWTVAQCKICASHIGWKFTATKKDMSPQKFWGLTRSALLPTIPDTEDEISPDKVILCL

Assay [4] addresses T1, FAK. As to the kind of experiment: Rescue of compound 9-induced FAK degradation in PA-TU-8988T cells after pre-treatment. The format is cell-based. Further details: endogenous in cells; host or cells: PA-TU-8988T. The following applies: pre-treatment 2 hours (0.5 μM carfilzomib, 1.0 μM MLN4924, 10 μM lenalidomide, 10 μM compound 13), then 10 nM compound 9 for 4 hours. As for the experimental part:
as §1, with “PA-TU-8988T cells were treated with FAK degraders or indicated inhibitors for four hours at the indicated doses. After four hours, PA-TU-8988T cells were lysed in radioimmunoprecipitation assay (RIPA) buffer (Thermo Scientific™) on ice for 60 minutes and lysates were clarified by centrifugation. Immunoblotting” for “Immunoblotting”

The target in assay [5] is T1, FAK. As to the kind of experiment: In vitro kinase assay (Life Technologies), FAK. The following applies: ATP concentration = Km, duplicate; read-out: Biochemical IC50 FAK. The method, then: (§2) In vitro kinase assays with inventive compound 13 and VS-4718 were performed by Life Technologies™ in duplicate at an ATP concentration=Km for each indicated kinase. The results are summarized in Table 2 and indicate that inventive compound 13 maintained potent FAK activity, with improved activity on ALK as compared to VS-4718.

In assay [6] the target is T2, ALK. As to the kind of experiment: In vitro kinase assay (Life Technologies), ALK. Further details: purchased Life Technologies. The following applies: ATP concentration = Km, duplicate; read-out: Biochemical IC50 ALK. The method, then: as §2
Target sequence in this assay (Q9UM73 19-1620): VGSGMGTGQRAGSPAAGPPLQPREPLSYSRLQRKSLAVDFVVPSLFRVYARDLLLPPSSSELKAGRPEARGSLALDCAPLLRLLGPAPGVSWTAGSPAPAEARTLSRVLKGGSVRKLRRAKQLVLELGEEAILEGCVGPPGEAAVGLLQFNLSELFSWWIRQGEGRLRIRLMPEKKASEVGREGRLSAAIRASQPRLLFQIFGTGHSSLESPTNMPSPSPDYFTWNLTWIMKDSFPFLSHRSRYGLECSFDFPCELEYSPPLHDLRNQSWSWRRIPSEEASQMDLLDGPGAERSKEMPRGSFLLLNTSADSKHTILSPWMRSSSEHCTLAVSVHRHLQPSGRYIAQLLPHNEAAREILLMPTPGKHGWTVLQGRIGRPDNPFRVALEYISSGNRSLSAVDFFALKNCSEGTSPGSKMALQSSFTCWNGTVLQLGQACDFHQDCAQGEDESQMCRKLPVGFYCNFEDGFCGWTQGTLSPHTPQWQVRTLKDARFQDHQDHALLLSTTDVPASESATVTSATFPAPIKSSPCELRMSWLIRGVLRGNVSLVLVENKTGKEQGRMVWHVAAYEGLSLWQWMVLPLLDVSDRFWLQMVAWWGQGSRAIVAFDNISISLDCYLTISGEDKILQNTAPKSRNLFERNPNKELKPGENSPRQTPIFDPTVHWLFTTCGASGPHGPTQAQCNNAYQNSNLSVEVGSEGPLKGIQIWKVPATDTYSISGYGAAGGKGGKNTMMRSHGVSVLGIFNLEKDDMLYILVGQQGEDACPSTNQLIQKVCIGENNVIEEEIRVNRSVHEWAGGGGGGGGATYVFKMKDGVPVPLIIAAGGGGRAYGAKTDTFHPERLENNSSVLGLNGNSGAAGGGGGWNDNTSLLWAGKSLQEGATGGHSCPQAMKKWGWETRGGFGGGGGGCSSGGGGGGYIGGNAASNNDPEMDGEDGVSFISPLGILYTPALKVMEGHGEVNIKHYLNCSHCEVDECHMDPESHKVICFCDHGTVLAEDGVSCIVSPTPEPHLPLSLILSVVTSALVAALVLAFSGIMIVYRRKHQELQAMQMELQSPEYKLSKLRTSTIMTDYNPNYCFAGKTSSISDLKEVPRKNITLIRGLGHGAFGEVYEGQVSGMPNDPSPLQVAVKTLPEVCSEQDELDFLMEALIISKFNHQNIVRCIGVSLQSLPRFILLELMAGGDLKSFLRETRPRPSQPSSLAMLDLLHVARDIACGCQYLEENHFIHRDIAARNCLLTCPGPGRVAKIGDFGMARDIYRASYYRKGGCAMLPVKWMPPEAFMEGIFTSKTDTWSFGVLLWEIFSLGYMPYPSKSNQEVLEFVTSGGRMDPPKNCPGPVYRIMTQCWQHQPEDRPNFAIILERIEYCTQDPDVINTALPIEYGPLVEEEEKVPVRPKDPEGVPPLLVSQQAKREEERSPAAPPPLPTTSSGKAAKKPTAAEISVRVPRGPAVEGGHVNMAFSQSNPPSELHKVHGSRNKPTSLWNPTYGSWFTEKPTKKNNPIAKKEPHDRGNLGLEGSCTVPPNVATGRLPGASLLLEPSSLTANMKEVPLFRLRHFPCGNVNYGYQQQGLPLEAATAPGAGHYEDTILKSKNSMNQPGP
The mark [7] stands for this setting: total FAK protein, PA-TU-8988T cells, 10 nM, 4 hours, vs DMSO.
The mark [8] stands for this setting: total FAK protein, PA-TU-8988T cells, 100 nM, 4 hours, vs DMSO.

T1 sequence (Q05397 whole entry): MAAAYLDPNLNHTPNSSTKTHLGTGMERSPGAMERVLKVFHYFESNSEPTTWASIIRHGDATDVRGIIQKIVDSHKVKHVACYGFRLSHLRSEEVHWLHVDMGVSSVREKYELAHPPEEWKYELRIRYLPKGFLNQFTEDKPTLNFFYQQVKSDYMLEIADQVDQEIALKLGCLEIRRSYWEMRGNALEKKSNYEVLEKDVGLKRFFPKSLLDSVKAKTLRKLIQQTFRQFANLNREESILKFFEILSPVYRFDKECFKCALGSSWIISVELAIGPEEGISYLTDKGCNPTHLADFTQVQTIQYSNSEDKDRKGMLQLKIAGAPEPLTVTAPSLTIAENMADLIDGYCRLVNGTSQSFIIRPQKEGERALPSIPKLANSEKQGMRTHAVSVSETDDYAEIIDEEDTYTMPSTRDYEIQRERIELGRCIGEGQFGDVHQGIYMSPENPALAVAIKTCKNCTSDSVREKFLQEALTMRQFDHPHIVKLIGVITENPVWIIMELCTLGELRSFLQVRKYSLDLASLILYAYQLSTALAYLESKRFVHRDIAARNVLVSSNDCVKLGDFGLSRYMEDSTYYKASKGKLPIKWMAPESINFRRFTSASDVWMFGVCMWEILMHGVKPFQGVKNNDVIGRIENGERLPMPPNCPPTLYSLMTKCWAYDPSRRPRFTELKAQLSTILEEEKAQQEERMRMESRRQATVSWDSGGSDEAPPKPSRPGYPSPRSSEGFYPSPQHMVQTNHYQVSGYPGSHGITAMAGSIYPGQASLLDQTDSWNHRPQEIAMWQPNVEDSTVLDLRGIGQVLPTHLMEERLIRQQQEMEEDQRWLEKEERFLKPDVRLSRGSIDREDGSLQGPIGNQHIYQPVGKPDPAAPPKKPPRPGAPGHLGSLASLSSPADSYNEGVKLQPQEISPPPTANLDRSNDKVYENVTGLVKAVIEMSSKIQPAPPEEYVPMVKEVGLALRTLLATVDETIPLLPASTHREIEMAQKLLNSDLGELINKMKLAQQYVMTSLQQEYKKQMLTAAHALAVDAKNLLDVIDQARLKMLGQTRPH

Turning to `CNC(=O)c1ccccc1Nc1cc(Nc2ccc(N3CCN(CCCCCCNC(=O)COc4cccc5c4C(=O)N(C4CCC(=O)NC4=O)C5=O)CC3)cc2OC)ncc1C(F)(F)F` (stereo not drawn) [Compound 1, 2-((2-((4-(4-(6-(2-((2-(2,6-dioxopiperidin-3-yl)-1,3-dioxoisoindolin-4-yl)oxy)acetamido)hexyl)piperazin-1-yl)-2-methoxyphenyl)amino)-5-(trifluoromethyl)pyridin-4-yl)amino)-N-methylbenzamide], the “Degradation of FAK protein in H3122 cells (in words)” value at FAK [1] is reported as “pronounced degradation of FAK protein”. On FAK [2] (PA-TU-8988T cells, 4 hours), the “Degradation of FAK protein (in words)” value is “rapid and pronounced degradation of FAK protein”; the “Concentration at which degradation of FAK protein is evident” value (“Concentration at which degradation” for short) is given as 1 nM; the “Concentration of maximal degradation of FAK protein” value came to 10 nM. Moreover, the inhibition at 0.01 µM on FAK [2] (setting [7]) was 85 to 100%. At FAK [2] (setting [8]), the inhibition at 0.1 µM was in the range of 85 to 100%.

As for `CNC(=O)c1ccccc1Nc1cc(Nc2ccc(N3CCN(CCCCCCNC(=O)COc4cccc5c4C(=O)N(C4CCC(=O)N(C)C4=O)C5=O)CC3)cc2OC)ncc1C(F)(F)F` (stereo not drawn) [Compound 2, 2-((2-((2-methoxy-4-(4-(6-(2-((2-(1-methyl-2,6-dioxopiperidin-3-yl)-1,3-dioxoisoindolin-4-yl)oxy)acetamido)hexyl)piperazin-1-yl)phenyl)amino)-5-(trifluoromethyl)pyridin-4-yl)amino)-N-methylbenzamide], the “Degradation of FAK protein (in words)” value on FAK [2] (PA-TU-8988T cells, 4 hours) is on record as “did not induce degradation of FAK protein”. For the same molecule, at FAK [2] (setting [7]), the inhibition at 0.01 µM was in the range of 0 to 24%. For the same molecule, the inhibition at 0.1 µM on FAK [2] (setting [8]) fell in the range of 0 to 24%.

Take `CNC(=O)c1ccccc1Nc1cc(Nc2ccc(N3CCN(CCOCCOCCOCCNC(=O)COc4cccc5c4C(=O)N(C4CCC(=O)NC4=O)C5=O)CC3)cc2OC)ncc1C(F)(F)F` (stereo not drawn) [Compound 3, 2-((2-((4-(4-(1-((2-(2,6-dioxopiperidin-3-yl)-1,3-dioxoisoindolin-4-yl)oxy)-2-oxo-6,9,12-trioxa-3-azatetradecan-14-yl)piperazin-1-yl)-2-methoxyphenyl)amino)-5-(trifluoromethyl)pyridin-4-yl)amino)-N-methylbenzamide]: the “Concentration giving modest degradation of FAK protein” value at FAK [2] (PA-TU-8988T cells, 4 hours) was determined as 100 nM. On FAK [2] (setting [7]), the inhibition at 0.01 µM fell in the range of 50 to 69%. The inhibition at 0.1 µM on FAK [2] (setting [8]) lay within 85 to 100%.

Consider `CNC(=O)c1ccccc1Nc1cc(Nc2ccc(N3CCN(CCOCCOCCNC(=O)CNc4cccc5c4C(=O)N(C4CCC(=O)NC4=O)C5=O)CC3)cc2OC)ncc1C(F)(F)F` (stereo not drawn) [Compound 4, 2-((2-((4-(4-(2-(2-(2-(2-((2-(2,6-dioxopiperidin-3-yl)-1,3-dioxoisoindolin-4-yl)amino)acetamido)ethoxy)ethoxy)ethyl)piperazin-1-yl)-2-methoxyphenyl)amino)-5-(trifluoromethyl)pyridin-4-yl)amino)-N-methylbenzamide], for which, on FAK [2] (PA-TU-8988T cells, 4 hours), the “Concentration at which degradation” value amounted to 10 nM and the “Concentration of maximal degradation of FAK protein” value is recorded as 100 nM. Further, the inhibition at 0.01 µM on FAK [2] (setting [7]) lay in the range of 70 to 84%. Further, the inhibition at 0.1 µM on FAK [2] (setting [8]) fell in the range of 85 to 100%.

As for `CNC(=O)c1ccccc1Nc1cc(Nc2ccc(N3CCN(CCCCCCCCNC(=O)CNc4cccc5c4C(=O)N(C4CCC(=O)NC4=O)C5=O)CC3)cc2OC)ncc1C(F)(F)F` (stereo not drawn) [Compound 5, 2-((2-((4-(4-(8-(2-((2-(2,6-dioxopiperidin-3-yl)-1,3-dioxoisoindolin-4-yl)amino)acetamido)octyl)piperazin-1-yl)-2-methoxyphenyl)amino)-5-(trifluoromethyl)pyridin-4-yl)amino)-N-methylbenzamide], on FAK [2] (PA-TU-8988T cells, 4 hours), the “Concentration at which degradation” value is 1 nM and the “Concentration of maximal degradation of FAK protein” value is on record as 10 nM.

On to `CNC(=O)c1ccccc1Nc1cc(Nc2ccc(N3CCN(CCCCCCCCNc4cccc5c4C(=O)N(C4CCC(=O)NC4=O)C5=O)CC3)cc2OC)ncc1C(F)(F)F` (stereo not drawn) [Compound 6, 2-((2-((4-(4-(8-((2-(2,6-dioxopiperidin-3-yl)-1,3-dioxoisoindolin-4-yl)amino)octyl)piperazin-1-yl)-2-methoxyphenyl)amino)-5-(trifluoromethyl)pyridin-4-yl)amino)-N-methylbenzamide], for which, on FAK [2] (PA-TU-8988T cells, 4 hours), the “Concentration at which degradation” value came out at 10 nM and the “Concentration of maximal degradation of FAK protein” value was 100 nM. For the same molecule, the inhibition at 0.01 µM on FAK [2] (setting [7]) lay within 85 to 100%. The inhibition at 0.1 µM at FAK [2] (setting [8]) was 85 to 100%.

As for `CS(=O)(=O)c1cccc(CNc2nc(Nc3ccc(C(=O)NCCCCCCCCNC(=O)COc4cccc5c4C(=O)N(C4CCC(=O)NC4=O)C5=O)cc3)ncc2C(F)(F)F)c1` (stereo not drawn) [Compound 7, N-(8-(2-((2-(2,6-dioxopiperidin-3-yl)-1,3-dioxoisoindolin-4-yl)oxy)acetamido)octyl)-4-((4-((3-(methylsulfonyl)benzyl)amino)-5-(trifluoromethyl)pyrimidin-2-yl)amino)benzamide], on FAK [2] (PA-TU-8988T cells, 4 hours), the “Concentration at which degradation” value came to 10 nM and the “Concentration of maximal degradation of FAK protein” value amounted to 100 nM. On FAK [2] (setting [7]), the inhibition at 0.01 µM lay within 25 to 49%. For the same molecule, the inhibition at 0.1 µM on FAK [2] (setting [8]) was 85 to 100%.

Consider `CS(=O)(=O)c1cccc(CNc2nc(Nc3ccc(C(=O)N4CCN(CCCCCNC(=O)COc5cccc6c5C(=O)N(C5CCC(=O)NC5=O)C6=O)CC4)cc3)ncc2C(F)(F)F)c1` (stereo not drawn) [Compound 8, 2-((2-(2,6-dioxopiperidin-3-yl)-1,3-dioxoisoindolin-4-yl)oxy)-N-(5-(4-(4-((4-((3-(methylsulfonyl)benzyl)amino)-5-(trifluoromethyl)pyrimidin-2-yl)amino)benzoyl)piperazin-1-yl)pentyl)acetamide], for which, at FAK [2] (PA-TU-8988T cells, 4 hours), the “Concentration giving modest degradation of FAK protein” value amounted to 10 nM and the “Concentration of maximal degradation of FAK protein” value is given as 100 nM. Further, at FAK [2] (4 h), the inhibition at 0.01 µM lay within 0 to 24% and the inhibition at 0.1 µM was 25 to 49%.

For `CNC(=O)c1ccccc1Nc1nc(Nc2cc(C)c(C3CCN(CCCCCCNC(=O)COc4cccc5c4C(=O)N(C4CCC(=O)NC4=O)C5=O)CC3)cc2OC(C)C)ncc1C(F)(F)F` (stereo not drawn) [Compound 10, 2-((2-((4-(1-(6-(2-((2-(2,6-dioxopiperidin-3-yl)-1,3-dioxoisoindolin-4-yl)oxy)acetamido)hexyl)piperidin-4-yl)-2-isopropoxy-5-methylphenyl)amino)-5-(trifluoromethyl)pyrimidin-4-yl)amino)-N-methylbenzamide], on FAK [1], the “Degradation of FAK protein in H3122 cells (in words)” value is “pronounced degradation of FAK protein”. The “Degradation of ALK protein in H3122 cells (in words)” value at ALK [3] is on record as “degradation of ALK protein”.

For `NS(=O)(=O)OC[C@@H]1C[C@@H](n2ccc3c(N[C@H]4CCc5ccccc54)ncnc32)C[C@@H]1O` [MLN4924], the “Rescue of FAK degradation induced by compound 9” value (“Rescue” for short) on FAK [4] is “rescued the degradation induced by compound 9”.

For the molecule `CNC(=O)c1ccccc1Nc1cc(Nc2ccc(N3CCOCC3)cc2OC)ncc1C(F)(F)F` [VS-4718, reference compound], the IC50 at FAK [5] was found to be 20 nM; at ALK [6] it was 41.1 nM. For the same molecule, on FAK [2] (PA-TU-8988T cells, 4 hours), the “Degradation of FAK protein (in words)” value is listed as “did not induce degradation of FAK protein”.

For the molecule `CC(C)C[C@H](NC(=O)[C@H](CCc1ccccc1)NC(=O)CN1CCOCC1)C(=O)N[C@@H](Cc1ccccc1)C(=O)N[C@@H](CC(C)C)C(=O)[C@@]1(C)CO1` [carfilzomib], the “Rescue” value on FAK [4] was “rescued the degradation induced by compound 9”.

With `Nc1cccc2c1CN(C1CCC(=O)NC1=O)C2=O` (stereo not drawn) [lenalidomide], the “Rescue” value at FAK [4] is listed as “rescued the degradation induced by compound 9”.

Consider PF-573228 [reference compound], for which the “Degradation of FAK protein (in words)” value on FAK [2] (PA-TU-8988T cells, 4 hours) is on record as “did not induce degradation of FAK protein”.
